Measured values published in US5830855A, “Lipodepsipeptides as antifungal and fungicidal agents” (priority 1996, dated 1998).
Converted amounts (≈) assume the structure as drawn. Numbered stars: 1 amine (or outer) side, 2 acyl side, 3 side chain; on linkers, the order of the positions; unused ones are H or OH. Bridge positions count the residues as written; N and C are the ends. Square brackets hold non-standard residues; d marks the D form. Peptide text beside a SMILES is read from it. * marks the point of attachment. ξ: configuration not given here. Asp(3S-OH) = N[C@H](C(=O)O)[C@H](O)C(=O)O; Thr(4-Cl) = N[C@H](C(=O)O)[C@H](O)CCl; ξAsp(3ξ-OH) = NC(C(=O)O)C(O)C(=O)O; X3 = O=C(C(N[*:1])C(O)CCl)[*:2]; X1 = CCCCCCCCC[C@@H](O)CC(=O)*; X2 = CCCCCCCCCCCC(O)CC(=O)*; dDab = NCC[C@@H](N)C(=O)O; Dab = NCC[CH](N)C(=O)O; Orn = NCCC[CH](N)C(=O)O; hSer = N[CH](CCO)C(=O)O; Dhb = C/C=C(\N)C(=O)O

Columns and labels:
Type in all cases: cell-based
Aspergillus fumigatus = test: Broth microdilution MIC; details: Table 1 (MICs), 16 isolates, 48 hr
Procedure: (§1) Medium: Liquid RPMI 1640 (RPMI) medium with L-glutamine and without sodium bicarbonate (Sigma Chemical Co., R-6504; St. Louis, Mo.) buffered with 0.165M MOPS (34.54 g/liter) was used for in vitro antifungal tests. The medium was adjusted to pH 7.0 with 10M NaOH and filter sterilized.
(§2) Lipodepsipeptide Dilutions: All stock drug solution concentrations were at least 10-fold higher than the highest concentration tested. AmB, ketoconazole, and the test compounds (SR-E, ST-B, and SS-A) were dissolved in sterile distilled water, 0.2N HCl, and 0.001N HCl, respectively. Each stock solution was diluted to 2× the highest concentration of drug tested with RPMI. Two-fold dilutions were made with RPMI medium.
(§3) Preparation of Inoculum Suspensions: On Sabouraud dextose agar (SDA; BBL, Becton and Dickinson and Co., Cockeysville, Md.) all isolates were subcultured at least twice before use to ensure purity and viability. Candida spp. and Saccharomyces cerevisiae were grown for 24 hr at 35° C. Isolates of Cryptococcus neoformans were grown for 48 hr at 35° C. Yeast cells from at least five 1-mm-diameter colonies were suspended in 5 ml of sterile 0.85% saline. The resulting suspension was vortexed for 15 sec. The turbidity of each mixed suspension was measured at 530 nm and adjusted to 1×10^6 to 5×10^6 CFU/ml by the NCCLS spectrophotometric method described by National Committee for Clinical Laboratory Standards. 1992. Reference method for broth dilution antifungal susceptibility testing of yeasts; proposed standard, NCCLS document M27-P (ISBN 1-56238-186-5). NCCLS, Villanova. The final transmission of each yeast suspension ranged from 85-87%.
(§4) Aspergillus fumigatus and Mucor spp. were grown for 1 wk at 35° C. The dermatophytes, Microsporum spp. and Trichophyton spp., were grown for two wk at 30° C. Fungal spores were washed from the plates of all good spore formers (A. fumigatus, Mucor spp., Microsporum canis and Trichophyton spp.) by placing 5 ml of 0.85% saline with 0.2% Tween 80 on the plates and mixing with an inoculating loop. The spore/mycelium suspension was drawn off with a pipette and allowed to settle for at least 5 min. For the poor spore-forming Microsporum audouinii, the procedure was the same except the spore/mycelial suspension was homogenized with a ground glass tissue homogenizer and then allowed to settle for at least 5 min. A small amount of the supernatant was transferred to 5 ml of sterile saline and vortexed. The stock suspensions of all filamentous fungi were measured at 530 nm and adjusted to 85-87% transmission. The concentration (1×10^6 to 5×10^6 CFU/ml) was determined by hemacytometer count or plate count on SDA. All stock suspensions were diluted 1000-fold with RPMI, or 2× the final desired test inocula. The 2× inoculum was diluted 1:1 when the wells were inoculated, and the desired inoculum size was achieved.
(§5) Broth Microdilution Test: Broth microdilution tests were performed using sterile, disposable, multiwell microdilution plates (96 round U-bottom wells) (Falcon 3077; Becton and Dickinson Labware, Lincoln Park, N.J.). The drugs (2× concentrations) were dispensed into the wells of rows number 1 to 10 of the microdilution plates in 100 μl volumes from highest drug concentration to lowest drug concentration. Each well was inoculated with 100 μl of the corresponding 2× concentrated fungal suspension. The wells of row 11 contained the inoculum with drug-free media as a positive growth control and the wells of row 12 contained uninoculated-drug-free medium as a sterility control.
(§6) Incubation and Scoring of MIC: All cultures were incubated without shaking at the temperature used during subculture. Incubation times were 48 hr for Candida spp., S. cerevisiae, A. fumigatus, and Mucor spp; 72 hr for C. neoformans; and 7 days for Microsporum and Trichophyton spp. […]

Candida albicans [1] = test: Broth microdilution MIC; details: Table 1 (MICs); Candida albicans, 20 isolates; RPMI pH 7.0, 48 hr; Ktz read at score 2, others at score 0
Procedure: as §1, §2, §3, §4, §5, §6

Candida kefyr [2] = test: Broth microdilution MIC; details: Table 1 (MICs), 1 isolate, 48 hr
Procedure: as §1, §2, §3, §4, §5, §6

Candida krusei [3] = test: Broth microdilution MIC; details: Table 1 (MICs), 2 isolates, 48 hr
Procedure: as §1, §2, §3, §4, §5, §6

Candida lusitaniae [4] = test: Broth microdilution MIC; details: Table 1 (MICs), 2 isolates, 48 hr
Procedure: as §1, §2, §3, §4, §5, §6

Candida parapsilosis [5] = test: Broth microdilution MIC; details: Table 1 (MICs), 2 isolates, 48 hr
Procedure: as §1, §2, §3, §4, §5, §6

Candida rugosa [6] = test: Broth microdilution MIC; details: Table 1 (MICs); Candida rugosa, 2 isolates; 48 hr
Procedure: as §1, §2, §3, §4, §5, §6

Candida tropicalis [7] = test: Broth microdilution MIC; details: Table 1 (MICs); Candida tropicalis, 2 isolates; 48 hr
Procedure: as §1, §2, §3, §4, §5, §6

Cryptococcus neoformans [8] = test: Broth microdilution MIC; details: for MIC range: Table 1 (MICs), Cryptococcus neoformans, 14 isolates, 72 hr
Procedure: as §1, §2, §3, §4, §5, §6

Microsporum spp. [9] = test: Broth microdilution MIC; details: Table 1 (MICs), 2 isolates, 7 days
Procedure: as §1, §2, §3, §4, §5, §6

Saccharomyces cerevisiae [10] = test: Broth microdilution MIC; details: Table 1 (MICs), 1 strain tested more than once (control ATCC 36375), 48 hr
Procedure: as §1, §2, §3, §4, §5, §6

Trichophyton spp. [11] = test: Broth microdilution MIC; details: Table 1 (MICs), 3 isolates, 7 days
Procedure: as §1, §2, §3, §4, §5, §6

Candida albicans [12] = test: Minimum Fungicidal Concentration (MFC); details: Table 2, 20 isolates, subculture on drug-free SDA 24 hr
Procedure: as §1, §2, §3, §4, §5, §6

Candida kefyr [13] = test: Minimum Fungicidal Concentration (MFC); details: Table 2, 1 isolate, 24 hr
Procedure: as §1, §2, §3, §4, §5, §6

Candida krusei [14] = test: Minimum Fungicidal Concentration (MFC); details: Table 2, 2 isolates, 24 hr
Procedure: as §1, §2, §3, §4, §5, §6

Candida lusitaniae [15] = test: Minimum Fungicidal Concentration (MFC); details: Table 2, 2 isolates, 24 hr
Procedure: as §1, §2, §3, §4, §5, §6

Candida parapsilosis [16] = test: Minimum Fungicidal Concentration (MFC); details: Table 2, 2 isolates, 24 hr
Procedure: as §1, §2, §3, §4, §5, §6

Candida rugosa [17] = test: Minimum Fungicidal Concentration (MFC); details: Table 2, 2 isolates, 24 hr
Procedure: as §1, §2, §3, §4, §5, §6

Candida tropicalis [18] = test: Minimum Fungicidal Concentration (MFC); details: Table 2, 2 isolates, 24 hr
Procedure: as §1, §2, §3, §4, §5, §6

Cryptococcus neoformans [19] = test: Minimum Fungicidal Concentration (MFC); details: Table 2, 14 isolates, 48 hr
Procedure: as §1, §2, §3, §4, §5, §6

Microsporum spp. [20] = test: Minimum Fungicidal Concentration (MFC); details: Table 2, 2 isolates, 7 d
Procedure: as §1, §2, §3, §4, §5, §6

Saccharomyces cerevisiae [21] = test: Minimum Fungicidal Concentration (MFC); details: Table 2, 1 strain tested more than once, 24 hr
Procedure: as §1, §2, §3, §4, §5, §6

Trichophyton spp. [22] = test: Minimum Fungicidal Concentration (MFC); details: Table 2, 3 isolates, 7 d
Procedure: as §1, §2, §3, §4, §5, §6

SMILES	MIC range (Aspergillus fumigatus)	MIC range (Candida albicans [1])	MIC (μg/ml) range (Candida kefyr [2])	MIC (μg/ml) range (Candida krusei [3])	MIC range (Candida lusitaniae [4])	MIC range (Candida parapsilosis [5])	MIC range (Candida rugosa [6])	MIC (μg/ml) range (Candida tropicalis [7])	MIC range (Cryptococcus neoformans [8])	MIC range (Microsporum spp. [9])	MFC (μg/ml) range (Saccharomyces cerevisiae [10])	MIC range (Trichophyton spp. [11])	MFC (μg/ml) range (Candida albicans [12])	MFC (μg/ml) range (Candida kefyr [13])	MFC (μg/ml) range (Candida krusei [14])	MFC (μg/ml) range (Candida lusitaniae [15])	MFC (μg/ml) range (Candida parapsilosis [16])	MFC (μg/ml) range (Candida rugosa [17])	MFC (μg/ml) range (Candida tropicalis [18])	MFC (μg/ml) range (Cryptococcus neoformans [19])	also measured
C/C=C1\NC(=O)[C@H](Cc2ccccc2)NC(=O)[C@H](CCCN=C(N)N)NC(=O)[C@@H](CCN)NC(=O)[C@H](CCN)NC(=O)[C@@H](CO)NC(=O)[C@@H](NC(=O)C[C@H](O)CCCCCCCCC)COC(=O)[C@H]([C@H](O)CCl)NC(=O)[C@H]([C@H](O)C(=O)O)NC1=O [SR-E, Syringomycin-E] (X1-S[dS][Dab][dDab]RF[Dhb][Asp(3S-OH)][Thr(4-Cl)]; ester 1-C)	10 to 20 µg/mL	2.5 to 5 µg/mL	2.5 µg/mL (≈ 2.04 µM)	10 µg/mL (≈ 8.16 µM)	2.5 µg/mL (≈ 2.04 µM)	2.5 µg/mL (≈ 2.04 µM)	5 to 20 µg/mL	2.5 to 5 µg/mL	2.5 to 10 µg/mL	6.25 to 12.5 µg/mL	2.5 µg/mL (≈ 2.04 µM)	3.1 to 6.25 µg/mL	2.5 to 5 µg/mL	2.5 µg/mL (≈ 2.04 µM)	10 µg/mL (≈ 8.16 µM)	2.5 to 5 µg/mL	2.5 µg/mL (≈ 2.04 µM)	10 to 20 µg/mL	5 µg/mL (≈ 4.08 µM)	2.5 to 10 µg/mL	MFC (μg/ml) range (Microsporum spp. [20]): 6.25 to 12.5 µg/mL; MFC (μg/ml) range (Saccharomyces cerevisiae [21]): 2.5 µg/mL (≈ 2.04 µM); MFC (μg/ml) range (Trichophyton spp. [22]): 6.25 to 25 µg/mL
C/C=C1\NC(=O)C(C(C)O)NC(=O)C(CCCN)NC(=O)C(CCO)NC(=O)CNC(=O)C(CCN)NC(=O)C(NC(=O)CC(O)CCCCCCCCCCC)COC(=O)C(C(O)CCl)NC(=O)C(C(O)C(=O)O)NC1=O (centres unmarked) [ST-B, Syringotoxin B] (X2-S[Dab]G[hSer][Orn]T[Dhb][ξAsp(3ξ-OH)][X3]; ester 1-C; configuration not given here)	6.25 to 25 µg/mL	3.2 to 12.5 µg/mL	3.2 µg/mL (≈ 2.82 µM)	12.5 to 25 µg/mL	6.25 µg/mL (≈ 5.5 µM)	6.25 to 12.5 µg/mL	3.2 to 25 µg/mL	3.2 µg/mL (≈ 2.82 µM)	0.8 to 6.25 µg/mL	25 to 200 µg/mL	6.25 µg/mL (≈ 5.5 µM)	25 to 200 µg/mL	3.2 to 12.5 µg/mL	3.2 µg/mL (≈ 2.82 µM)	12.5 to 50 µg/mL	6.25 to 12.5 µg/mL	12.5 to 25 µg/mL	6.25 to 50 µg/mL	12.5 µg/mL (≈ 11 µM)	0.8 to 12.5 µg/mL	MIC, one strain of C. neoformans (Cryptococcus neoformans [8]; one strain of C. neoformans, very sensitive to ST-B, somewhat resistant to AmB): 0.8 µg/mL; MFC (μg/ml) range (Microsporum spp. [20]): 25 to 200 µg/mL; MFC (μg/ml) range (Saccharomyces cerevisiae [21]): 12.5 to 25 µg/mL; MFC (μg/ml) range (Trichophyton spp. [22]): 25 to 200 µg/mL
